# Laboratory results from US10947252B2, “Inhibitors of KEAP1-Nrf2 protein-protein interaction” (Janssen Pharmaceutica NV, priority 2018, dated 2021).
# What was measured:
# [1] = test system: Glo-Response ARE-luc2P HEK293 cell line; experiment: ARE luciferase reporter cell-based assay; settings: average of results obtained;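 also: luciferase signal tracks Nrf2 activation of the ARE once compounds disrupt KEAP1-Nrf2 binding, read with One-Glo reagent, DMSO serving as low control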
# [2] = target: Kelch domain of human KEAP1 (321-624 aa) (Homo sapiens (Human), UniProt Q14145); experiment: KEAP1 KELCH ThermoFluor binding assay; settings: KEAP Kelch […], 1,8-ANS, pH 7.0, average of results obtained, read-out: Tf Kd;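 also: Ligand-induced melting temperature shift of E. coli-expressed KEAP1 Kelch protein, Kd estimated from concentration-response curves of ΔTm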
# Chain of Kelch domain of human KEAP1 (321-624 aa) (Q14145 321-624): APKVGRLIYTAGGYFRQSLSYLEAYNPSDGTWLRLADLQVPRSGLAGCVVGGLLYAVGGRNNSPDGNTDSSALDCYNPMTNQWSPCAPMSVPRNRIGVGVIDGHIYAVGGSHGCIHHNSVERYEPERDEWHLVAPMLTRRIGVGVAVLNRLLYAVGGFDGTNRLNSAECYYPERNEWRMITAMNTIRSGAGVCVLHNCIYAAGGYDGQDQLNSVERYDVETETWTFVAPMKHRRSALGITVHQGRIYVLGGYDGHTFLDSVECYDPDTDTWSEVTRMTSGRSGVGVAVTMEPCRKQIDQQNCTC
Structure (SMILES),"EC50 ([1]; Homo sapiens, HEK293, 24 h) [nM]",Kd [2] [nM],EC50 ([1]; 24 hours) [nM]
"Cc1ccc([C@H](c2ccn3c(C(F)(F)F)nnc3c2C)C(C)(C)C(=O)O)cc1CN1CC2(CCOCC2)Oc2nc(NCCN3CCOCC3)c(C)cc2S1(=O)=O (single isomer, unassigned) [Example 365, (*R)-2,2-Dimethyl-3-(4-methyl-3-((8′-methyl-7′-((2-morpholinoethyl)amino)-1′,1′-dioxido-2,3,5,6-tetrahydrospiro[pyran-4,4′-pyrido[2,3-b][1,4,5]oxathiazepin]-2′(3′H)-yl)methyl)phenyl)-3-(8-methyl-3-(trifluoromethyl)-[1,2,4]triazolo[4,3-a]pyridine-7-yl)propanoic Acid]",23.9,< 1,–
"Cc1ccc([C@H](CC(=O)O)c2ccn3c(C(F)(F)F)nnc3c2C)cc1CN1CC(C)(C)Oc2ccccc2S1(=O)=O (single isomer, unassigned) [Example 284, 3-(3-((4,4-Dimethyl-1,1-dioxido-3,4-dihydro-2H-benzo[b][1,4,5]oxathiazepin-2-yl)methyl)-4-methylphenyl)-3-(8-methyl-3-(trifluoromethyl)-[1,2,4]triazolo[4,3-a]pyridin-7-yl)propanoic Acid]",213,1.65,–
"Cc1ccc([C@@H](CC(=O)O)c2ccn3c(C(F)(F)F)nnc3c2C)nc1CN1CC2(CC2)Oc2ncc(F)cc2S1(=O)=O (single isomer, unassigned) [Example 509, (*S)-3-(6-((8′-Fluoro-1′,1′-dioxidospiro[cyclopropane-1,4′-pyrido[2,3-b][1,4,5]oxathiazepin]-2′(3′H)-yl)methyl)-5-methylpyridin-2-yl)-3-(8-methyl-3-(trifluoromethyl)-[1,2,4]triazolo[4,3-a]pyridin-7-yl)propanoic Acid]",70.4,< 1,–
"Cc1ccc([C@@H](CC(=O)O)c2ccn3c(C(F)F)nnc3c2C)cc1CN1C[C@H]2COCCN2c2ncccc2S1(=O)=O (single isomer, unassigned) [Example 462, (*R)-3-(3-(Difluoromethyl)-8-methyl-[1,2,4]triazolo[4,3-a]pyridin-7-yl)-3-(3-(((*S)-5,5-dioxido-7a,8,10,11-tetrahydro-[1,4]oxazino[3,4-d]pyrido[2,3-f][1,2,5]thiadiazepin-6(7H)-yl)methyl)-4-methylphenyl)propanoic Acid]",2930,13.7,–
"Cc1ccc([C@@H](CC(=O)O)c2ccn3c(C(F)(F)F)nnc3c2C)cc1CN1C[C@@H]2CCC(F)(F)CN2c2ncccc2S1(=O)=O (single isomer, unassigned) [Example 455, (*R)-3-(3-(((*S)-10,10-Difluoro-5,5-dioxido-7,7a,8,9,10,11-hexahydro-6H-dipyrido[2,1-d:2′,3′-f][1,2,5]thiadiazepin-6-yl)methyl)-4-methylphenyl)-3-(8-methyl-3-(trifluoromethyl)-[1,2,4]triazolo[4,3-a]pyridin-7-yl)propanoic Acid]",798,< 1,–
"Cc1c([C@@H](CC(=O)O)c2ccc(Cl)c(CN3CC4CCCCN4c4ncc(F)cc4S3(=O)=O)c2)ccn2c(C(F)(F)F)nnc12 (single isomer, unassigned) [Example 94, (*S)-3-(4-Chloro-3-(((*S)-3-fluoro-5,5-dioxido-7,7a,8,9,10,11-hexahydro-6H-dipyrido[2,1-d:2′,3′-f][1,2,5]thiadiazepin-6-yl)methyl)phenyl)-3-(8-methyl-3-(trifluoromethyl)-[1,2,4]triazolo[4,3-a]pyridine-7-yl)propanoic Acid]",54.2,< 1,–
"CCn1nnc2c(C)c([C@@H](c3ccc(C)c(CN4CC5(CCOCC5)Oc5ncc(C)cc5S4(=O)=O)n3)C(C)(C)C(=O)O)ccc21 (single isomer, unassigned) [Example 558, (*R)-3-(1-Ethyl-4-methyl-1H-benzo[d][1,2,3]triazol-5-yl)-2,2-dimethyl-3-(5-methyl-6-((8′-methyl-1′,1′-dioxido-2,3,5,6-tetrahydrospiro[pyran-4,4′-pyrido[2,3-b][1,4,5]oxathiazepin]-2′(3′H)-yl)methyl)pyridin-2-yl)propanoic Acid]",195,343,–
"Cc1ncc([C@H](CC(=O)O)c2ccn3c(C(F)(F)F)nnc3c2C)cc1CN1CC2(CCOCC2)Oc2ncccc2S1(=O)=O (single isomer, unassigned) [Example 564, (*R)-3-(5-((1′,1′-Dioxido-2,3,5,6-tetrahydrospiro[pyran-4,4′-pyrido[2,3-b][1,4,5]oxathiazepin]-2′(3′H)-yl)methyl)-6-methylpyridin-3-yl)-3-(8-methyl-3-(trifluoromethyl)-[1,2,4]triazolo[4,3-a]pyridin-7-yl)propanoic Acid]",> 20000,323,–
"Cc1ccc([C@H](c2ccn3c(C(F)(F)F)nnc3c2)C(C)(C)C(=O)O)cc1CN1CC2(CCOCC2)Oc2ncccc2S1(=O)=O (single isomer, unassigned) [Example 321, (*R)-3-(3-((1′,1′-Dioxido-2,3,5,6-tetrahydrospiro[pyran-4,4′-pyrido[2,3-b][1,4,5]oxathiazepin]-2′(3′H)-yl)methyl)-4-methylphenyl)-2,2-dimethyl-3-(3-(trifluoromethyl)-[1,2,4]triazolo[4,3-a]pyridin-7-yl)propanoic Acid]",22,< 1,–
"Cc1ccc([C@H](c2ccn3c(C(F)(F)F)nnc3c2C)C(C)(C)C(=O)O)cc1CN1CC2(CCOCC2)Oc2nc(OCCN3CCNCC3)ccc2S1(=O)=O (single isomer, unassigned) [Example 368, (*R)-3-(3-((1′,1′-Dioxido-7′-(2-(piperazin-1-yl)ethoxy)-2,3,5,6-tetrahydrospiro[pyran-4,4′-pyrido[2,3-b][1,4,5]oxathiazepin]-2′(3′H)-yl)methyl)-4-methylphenyl)-2,2-dimethyl-3-(8-methyl-3-(trifluoromethyl)-[1,2,4]triazolo[4,3-a][pyridine-7-yl)propanoic Acid]",256,< 1,–
"Cc1ccc([C@@H](c2ccn3c(C(F)(F)F)nnc3c2C)C(C)(C)C(=O)O)cc1CN1CC2(CCOCC2)Oc2ncccc2S1(=O)=O (single isomer, unassigned) [Example 409, (*S)-3-(3-((1′,1′-dioxido-2,3,5,6-tetrahydrospiro[pyran-4,4′-pyrido[2,3-b][1,4,5]oxathiazepin]-2′(3′H)-yl)methyl)-4-methylphenyl)-2,2-dimethyl-3-(8-methyl-3-(trifluoromethyl)-[1,2,4]triazolo[4,3-a]pyridin-7-yl)propanoic Acid]",2.64,< 1,–
"Cc1ccc(C(CC(=O)O)c2ccn3c(C(F)F)nnc3c2C)cc1CN1CC2(COC2)Oc2ncccc2S1(=O)=O (stereo not shown) [Example 469, 3-(3-(Difluoromethyl)-8-methyl-[1,2,4]triazolo[4,3-a]pyridin-7-yl)-3-(3-((1′,1′-dioxidospiro[oxetane-3,4′-pyrido[2,3-b][1,4,5]oxathiazepin]-2′(3′H)-yl)methyl)-4-methylphenyl)propanoic Acid]",608,< 1,–
"Cc1cnc([C@@H](c2ccn3c(C(F)F)nnc3c2C)C(C)(C)C(=O)O)cc1CN1CC2(CCOCC2)Oc2nc(OCCN3CCCC3)c(C)cc2S1(=O)=O (single isomer, unassigned) [Example 640, (*S)-3-(3-(Difluoromethyl)-8-methyl-[1,2,4]triazolo[4,3-a]pyridin-7-yl)-2,2-dimethyl-3-(5-methyl-4-((8′-methyl-1′,1′-dioxido-7′-(2-(pyrrolidin-1-yl)ethoxy)-2,3,5,6-tetrahydrospiro[pyran-4,4′-pyrido[2,3-b][1,4,5]oxathiazepin]-2′(3′H)-yl)methyl)pyridin-2-yl)propanoic Acid]",73.9,< 1,–
"Cc1ccc([C@@H](CC(=O)O)c2ccc3c(nnn3CC3CC3)c2C(F)F)cc1CN1C[C@H]2CCCCN2c2ncccc2S1(=O)=O (single isomer, unassigned) [Example 173, (*R)-3-(1-(Cyclopropylmethyl)-4-(difluoromethyl)-1H-benzo[d][1,2,3]triazol-5-yl)-3-(3-(((R)-5,5-dioxido-7,7a,8,9,10,11-hexahydro-6H-dipyrido[2,1-d:2′,3′-f][1,2,5]thiadiazepin-6-yl)methyl)-4-methylphenyl)propanoic Acid]",–,4,540
"Cc1ccc([C@H](c2ccn3c(C(F)(F)F)nnc3c2C)C(C)(C)C(=O)O)cc1CN1CC2(CCOCC2)Oc2nc(OCCN3CCCC3)c(C)cc2S1(=O)=O (single isomer, unassigned) [Example 609, (*R)-2,2-Dimethyl-3-(4-methyl-3-((8′-methyl-1′,1′-dioxido-7′-(2-(pyrrolidin-1-yl)ethoxy)-2,3,5,6-tetrahydrospiro[pyran-4,4′-pyrido[2,3-b][1,4,5]oxathiazepin]-2′(3′H)-yl)methyl)phenyl)-3-(8-methyl-3-(trifluoromethyl)-[1,2,4]triazolo[4,3-a]pyridin-7-yl)propanoic Acid]",> 20000,634,–
"CCn1nnc2c(C)c([C@H](CC(=O)O)c3ccc(C)c(CN4C[C@H]5CCCN5c5ncccc5S4(=O)=O)n3)ccc21 (single isomer, unassigned) [Example 297, (*S)-3-(6-(((R)-5,5-Dioxido-7a,8,9,10-tetrahydropyrido[2,3-f]pyrrolo[2,1-d][1,2,5]thiadiazepin-6(7H)-yl)methyl)-5-methylpyridin-2-yl)-3-(1-ethyl-4-methyl-1H-benzo[d][1,2,3]triazol-5-yl)propanoic Acid]",6,< 1,–
"Cc1cnc2c(c1)S(=O)(=O)N(Cc1nc([C@@H](c3ccn4c(C(F)F)nnc4c3C)C(C)(C)C(=O)O)ccc1C)CC1(CC1)O2 (single isomer, unassigned) [Example 334, (*S)-3-(3-(Difluoromethyl)-8-methyl-[1,2,4]triazolo[4,3-a]pyridin-7-yl)-2,2-dimethyl-3-(5-methyl-6-((8′-methyl-1′,1′-dioxidospiro[cyclopropane-1,4′-pyrido[2,3-b][1,4,5]oxathiazepin]-2′(3′H)-yl)methyl)pyridin-2-yl)propanoic Acid]",5.2,< 1,–
